{
  "source": "ChEMBL document CHEMBL6092226",
  "about": "“Tilting the Scales toward EGFR Mutant Selectivity: Expanding the Scope of Bivalent \"Type V\" Kinase Inhibitors” (J Med Chem, 2024)",
  "key": {"[1]": {"biological_target": "Tyrosine-protein kinase Blk (Homo sapiens) (UniProt P51451)", "sequence (P51451 2-505 limits assumed)": "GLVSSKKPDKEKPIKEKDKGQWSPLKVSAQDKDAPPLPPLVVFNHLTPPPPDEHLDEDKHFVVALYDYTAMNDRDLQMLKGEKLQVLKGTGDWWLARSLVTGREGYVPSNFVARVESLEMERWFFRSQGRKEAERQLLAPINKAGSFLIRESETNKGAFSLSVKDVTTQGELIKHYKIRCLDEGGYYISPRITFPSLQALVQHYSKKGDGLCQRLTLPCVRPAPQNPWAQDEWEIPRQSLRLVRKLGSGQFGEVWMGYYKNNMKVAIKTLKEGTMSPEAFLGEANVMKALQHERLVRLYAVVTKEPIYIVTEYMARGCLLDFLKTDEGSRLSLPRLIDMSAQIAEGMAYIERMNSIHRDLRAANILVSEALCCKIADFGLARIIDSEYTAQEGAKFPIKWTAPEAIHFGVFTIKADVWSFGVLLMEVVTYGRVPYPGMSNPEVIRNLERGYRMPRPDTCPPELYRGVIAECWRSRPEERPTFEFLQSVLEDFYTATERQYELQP", "test": "Inhibition of BLK (unknown origin) at 1 uM by Eurofins DiscoverX KINOMEscan analysis"}, "[2]": {"test": "Metabolic stability in pooled male human liver microsomes at 150 uM measured after 2 hrs in presence of NADPH regenerating system by LC-MS analysis", "format": "ADME, Microsome"}, "[3]": {"biological_target": "Epidermal growth factor receptor (Homo sapiens, UniProt P00533)", "sequence (P00533 whole entry, the tested form may be a part)": "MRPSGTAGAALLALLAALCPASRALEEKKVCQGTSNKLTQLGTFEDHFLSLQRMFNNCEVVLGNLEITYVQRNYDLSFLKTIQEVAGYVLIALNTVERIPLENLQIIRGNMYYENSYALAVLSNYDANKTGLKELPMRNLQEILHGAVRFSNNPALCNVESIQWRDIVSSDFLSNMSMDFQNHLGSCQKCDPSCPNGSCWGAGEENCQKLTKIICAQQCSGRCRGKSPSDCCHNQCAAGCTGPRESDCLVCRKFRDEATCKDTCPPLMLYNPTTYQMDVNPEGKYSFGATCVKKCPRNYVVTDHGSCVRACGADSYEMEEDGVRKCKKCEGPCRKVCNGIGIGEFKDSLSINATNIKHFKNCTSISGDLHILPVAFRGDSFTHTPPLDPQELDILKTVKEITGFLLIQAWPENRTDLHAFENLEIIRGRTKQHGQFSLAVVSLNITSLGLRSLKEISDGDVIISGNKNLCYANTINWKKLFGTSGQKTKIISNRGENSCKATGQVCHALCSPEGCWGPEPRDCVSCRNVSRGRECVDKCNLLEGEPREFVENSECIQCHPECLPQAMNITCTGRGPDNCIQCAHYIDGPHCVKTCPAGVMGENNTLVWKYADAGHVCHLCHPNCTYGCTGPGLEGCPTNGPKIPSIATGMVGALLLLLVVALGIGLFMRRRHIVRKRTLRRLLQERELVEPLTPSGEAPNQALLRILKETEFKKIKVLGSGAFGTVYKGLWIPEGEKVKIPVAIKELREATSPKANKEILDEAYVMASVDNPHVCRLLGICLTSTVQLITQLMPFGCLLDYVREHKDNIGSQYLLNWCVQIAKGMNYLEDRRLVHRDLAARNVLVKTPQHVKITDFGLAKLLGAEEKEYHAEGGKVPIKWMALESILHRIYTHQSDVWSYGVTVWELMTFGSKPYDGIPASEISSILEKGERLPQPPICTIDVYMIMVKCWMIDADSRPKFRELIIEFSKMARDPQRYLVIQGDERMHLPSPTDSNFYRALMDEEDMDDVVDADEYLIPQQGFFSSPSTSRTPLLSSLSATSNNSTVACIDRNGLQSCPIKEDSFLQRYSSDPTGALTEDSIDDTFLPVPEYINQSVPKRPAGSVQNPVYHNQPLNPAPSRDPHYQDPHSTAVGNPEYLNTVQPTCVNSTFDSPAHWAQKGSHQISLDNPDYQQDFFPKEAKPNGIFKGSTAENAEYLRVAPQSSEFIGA", "test": "Time-dependent irreversible inhibition of N-terminal GST-tagged wildtype human EGFR cytoplasmic domain (669 to 1210 residues) extracted from Sf21 insect cells assessed as apparent inactivation constant (Ki) incubated for 240 mins in presence of ATP by fluorescence based analysis", "settings": "read-out: Ki(app)"}, "[4]": {"biological_target": "Epidermal growth factor receptor (Homo sapiens, UniProt P00533, L858R)", "sequence (P00533 25-1210 L858R limits assumed)": "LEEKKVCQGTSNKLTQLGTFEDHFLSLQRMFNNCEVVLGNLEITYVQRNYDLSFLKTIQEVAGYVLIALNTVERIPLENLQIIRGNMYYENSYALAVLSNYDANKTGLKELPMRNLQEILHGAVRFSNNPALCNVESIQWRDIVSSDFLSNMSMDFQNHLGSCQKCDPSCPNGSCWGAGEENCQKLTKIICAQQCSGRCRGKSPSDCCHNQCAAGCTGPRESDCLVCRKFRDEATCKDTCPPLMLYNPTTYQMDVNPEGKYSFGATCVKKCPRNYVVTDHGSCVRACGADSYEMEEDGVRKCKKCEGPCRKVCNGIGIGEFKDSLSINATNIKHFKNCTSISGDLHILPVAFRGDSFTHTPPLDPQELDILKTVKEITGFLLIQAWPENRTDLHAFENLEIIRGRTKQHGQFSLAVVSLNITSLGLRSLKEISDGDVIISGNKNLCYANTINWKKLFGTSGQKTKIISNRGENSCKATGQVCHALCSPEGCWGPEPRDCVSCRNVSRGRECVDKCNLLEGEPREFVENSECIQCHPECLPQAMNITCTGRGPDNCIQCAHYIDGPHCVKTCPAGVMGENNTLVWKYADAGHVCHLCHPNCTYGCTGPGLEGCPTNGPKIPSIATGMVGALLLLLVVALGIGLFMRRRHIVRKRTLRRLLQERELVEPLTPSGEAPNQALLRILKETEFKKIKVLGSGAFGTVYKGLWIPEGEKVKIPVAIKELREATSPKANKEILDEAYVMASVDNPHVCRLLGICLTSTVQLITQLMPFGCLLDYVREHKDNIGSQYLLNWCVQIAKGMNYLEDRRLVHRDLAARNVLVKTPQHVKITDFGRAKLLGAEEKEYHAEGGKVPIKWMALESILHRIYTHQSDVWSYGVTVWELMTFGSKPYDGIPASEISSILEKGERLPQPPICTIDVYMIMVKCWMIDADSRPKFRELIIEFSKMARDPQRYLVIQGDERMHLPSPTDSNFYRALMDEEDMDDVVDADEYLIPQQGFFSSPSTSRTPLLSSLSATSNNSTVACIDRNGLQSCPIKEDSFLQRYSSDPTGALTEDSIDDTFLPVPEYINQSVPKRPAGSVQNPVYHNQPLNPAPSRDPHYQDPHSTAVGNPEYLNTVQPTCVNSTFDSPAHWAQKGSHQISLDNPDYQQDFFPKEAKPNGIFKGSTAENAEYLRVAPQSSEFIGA", "test": "Time-dependent irreversible inhibition of GST-tagged EGFR L858R mutant cytoplasmic domain (669 to 1210 residues) (unknown origin) assessed as apparent inactivation constant (Ki) incubated for 240 mins in presence of ATP by fluorescence based analysis", "settings": "read-out: Ki(app)"}, "[5]": {"biological_target": "T1, Tyrosine-protein kinase TXK (Homo sapiens) (UniProt P42681)", "T1 sequence (whole entry)": "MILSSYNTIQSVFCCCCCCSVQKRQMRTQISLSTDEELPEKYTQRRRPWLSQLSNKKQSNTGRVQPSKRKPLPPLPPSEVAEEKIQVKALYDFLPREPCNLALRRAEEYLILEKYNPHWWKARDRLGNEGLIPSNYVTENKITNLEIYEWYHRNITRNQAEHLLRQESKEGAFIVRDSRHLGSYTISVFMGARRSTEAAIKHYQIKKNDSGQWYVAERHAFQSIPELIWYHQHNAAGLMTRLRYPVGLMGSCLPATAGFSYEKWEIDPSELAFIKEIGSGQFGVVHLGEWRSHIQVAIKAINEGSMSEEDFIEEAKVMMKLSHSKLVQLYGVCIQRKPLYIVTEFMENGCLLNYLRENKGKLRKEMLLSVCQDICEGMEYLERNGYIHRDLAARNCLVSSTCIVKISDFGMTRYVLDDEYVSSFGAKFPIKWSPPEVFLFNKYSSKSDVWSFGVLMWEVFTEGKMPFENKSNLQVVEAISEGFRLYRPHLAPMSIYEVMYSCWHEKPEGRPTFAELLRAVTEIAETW", "test": "Inhibition of TXK (unknown origin) at 1 uM by Eurofins DiscoverX KINOMEscan analysis"}, "[6]": {"tested_on": "BaF3", "format": "functional, cell-based", "settings": "Mus musculus, BaF3, 72 h"}, "[7]": {"biological_target": "T2, Tyrosine-protein kinase Tec (Homo sapiens) (UniProt P42680)", "T2 sequence (whole entry)": "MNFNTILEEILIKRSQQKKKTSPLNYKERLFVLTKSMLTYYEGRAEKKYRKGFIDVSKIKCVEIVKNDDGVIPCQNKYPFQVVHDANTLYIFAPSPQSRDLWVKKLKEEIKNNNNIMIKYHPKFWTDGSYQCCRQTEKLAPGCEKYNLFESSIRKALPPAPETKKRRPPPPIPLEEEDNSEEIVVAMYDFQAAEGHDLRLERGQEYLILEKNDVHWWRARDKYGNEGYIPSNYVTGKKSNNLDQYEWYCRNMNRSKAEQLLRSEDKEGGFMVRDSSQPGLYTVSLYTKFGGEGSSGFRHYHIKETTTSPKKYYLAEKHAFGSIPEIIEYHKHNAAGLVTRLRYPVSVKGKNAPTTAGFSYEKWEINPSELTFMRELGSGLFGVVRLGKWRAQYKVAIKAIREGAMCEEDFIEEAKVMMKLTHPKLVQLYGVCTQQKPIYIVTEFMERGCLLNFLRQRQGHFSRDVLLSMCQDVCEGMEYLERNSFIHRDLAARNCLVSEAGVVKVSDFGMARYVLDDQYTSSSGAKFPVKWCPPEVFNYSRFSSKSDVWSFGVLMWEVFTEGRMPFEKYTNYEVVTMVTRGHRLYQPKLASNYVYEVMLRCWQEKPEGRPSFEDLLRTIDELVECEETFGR", "test": "Inhibition of TEC (unknown origin) at 1 uM by Eurofins DiscoverX KINOMEscan analysis"}, "[8]": {"tested_on": "HCC827", "test": "cells", "settings": "Homo sapiens, HCC827, 72 h"}, "[9]": {"tested_on": "BaF3", "test": "cells", "settings": "Mus musculus, BaF3, 72 h"}, "[10]": {"biological_target": "T3, Tyrosine-protein kinase ITK/TSK (Homo sapiens) (UniProt Q08881)", "T3 sequence (whole entry)": "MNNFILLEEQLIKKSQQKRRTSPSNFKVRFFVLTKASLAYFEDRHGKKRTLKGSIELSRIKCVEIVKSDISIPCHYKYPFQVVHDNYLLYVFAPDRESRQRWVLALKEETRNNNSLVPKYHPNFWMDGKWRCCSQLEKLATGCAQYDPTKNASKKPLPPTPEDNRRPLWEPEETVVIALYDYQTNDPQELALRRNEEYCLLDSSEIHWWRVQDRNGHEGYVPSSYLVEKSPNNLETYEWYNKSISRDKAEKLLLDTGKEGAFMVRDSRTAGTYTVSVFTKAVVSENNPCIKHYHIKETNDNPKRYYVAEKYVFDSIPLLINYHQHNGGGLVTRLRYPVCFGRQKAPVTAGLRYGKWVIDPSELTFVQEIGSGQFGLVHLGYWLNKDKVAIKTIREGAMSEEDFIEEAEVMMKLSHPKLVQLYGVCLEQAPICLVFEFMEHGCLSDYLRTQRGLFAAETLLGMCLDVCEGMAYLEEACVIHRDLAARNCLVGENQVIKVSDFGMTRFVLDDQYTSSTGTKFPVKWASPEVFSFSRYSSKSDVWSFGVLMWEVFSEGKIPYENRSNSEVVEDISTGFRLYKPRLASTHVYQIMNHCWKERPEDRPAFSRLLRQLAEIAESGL", "test": "Inhibition of ITK (unknown origin) at 1 uM by Eurofins DiscoverX KINOMEscan analysis"}},
  "note": "Active and inactive are the calls of the source. The rule behind the calls is not given here.",
  "data": [
    {"molecule": "C=CC(=O)Nc1ccc(OC)c(Nc2cc(-c3[nH]c(SC)nc3-c3cccc(NC(=O)c4cccc(O)c4CN4Cc5ccccc5C4=O)c3)ccn2)c1", "values": [
      {"measurement": "inhibition", "setting": "[1]", "value": "inactive"},
      {"measurement": "Stability", "setting": "[2]", "value": "Stable"},
      {"measurement": "Ki", "setting": "[3]", "value": 1320, "unit": "nM"},
      {"measurement": "Ki", "setting": "[4]", "value": 276, "unit": "nM"},
      {"measurement": "inhibition", "setting": "[5]", "value": "inactive"},
      {"measurement": "EC50", "setting": "[6]", "value": 3.9, "unit": "µM"},
      {"measurement": "inhibition", "setting": "[7]", "value": "inactive"},
      {"measurement": "EC50", "setting": "[8]", "value": 160, "unit": "nM"},
      {"measurement": "EC50", "setting": "[9]", "value": 150, "unit": "nM"},
      {"measurement": "inhibition", "setting": "[10]", "value": "inactive"}
    ]}
  ]
}
